The values that follow come from patent US11713338B2, “Cyclic peptides multimers targeting α-4-β-7 integrin” (priority 2016, dated 2023).

This assay concerns the target T1, integrin α4β7 (RPMI8866 human cells adhering to MAdCAM-1) (Homo sapiens, UniProt P13612+P26010).
T1 construct: RMP18866 cells, which express integrin α4β7; host or cells: RPMI8866
T1 sequence (P13612 34-1032): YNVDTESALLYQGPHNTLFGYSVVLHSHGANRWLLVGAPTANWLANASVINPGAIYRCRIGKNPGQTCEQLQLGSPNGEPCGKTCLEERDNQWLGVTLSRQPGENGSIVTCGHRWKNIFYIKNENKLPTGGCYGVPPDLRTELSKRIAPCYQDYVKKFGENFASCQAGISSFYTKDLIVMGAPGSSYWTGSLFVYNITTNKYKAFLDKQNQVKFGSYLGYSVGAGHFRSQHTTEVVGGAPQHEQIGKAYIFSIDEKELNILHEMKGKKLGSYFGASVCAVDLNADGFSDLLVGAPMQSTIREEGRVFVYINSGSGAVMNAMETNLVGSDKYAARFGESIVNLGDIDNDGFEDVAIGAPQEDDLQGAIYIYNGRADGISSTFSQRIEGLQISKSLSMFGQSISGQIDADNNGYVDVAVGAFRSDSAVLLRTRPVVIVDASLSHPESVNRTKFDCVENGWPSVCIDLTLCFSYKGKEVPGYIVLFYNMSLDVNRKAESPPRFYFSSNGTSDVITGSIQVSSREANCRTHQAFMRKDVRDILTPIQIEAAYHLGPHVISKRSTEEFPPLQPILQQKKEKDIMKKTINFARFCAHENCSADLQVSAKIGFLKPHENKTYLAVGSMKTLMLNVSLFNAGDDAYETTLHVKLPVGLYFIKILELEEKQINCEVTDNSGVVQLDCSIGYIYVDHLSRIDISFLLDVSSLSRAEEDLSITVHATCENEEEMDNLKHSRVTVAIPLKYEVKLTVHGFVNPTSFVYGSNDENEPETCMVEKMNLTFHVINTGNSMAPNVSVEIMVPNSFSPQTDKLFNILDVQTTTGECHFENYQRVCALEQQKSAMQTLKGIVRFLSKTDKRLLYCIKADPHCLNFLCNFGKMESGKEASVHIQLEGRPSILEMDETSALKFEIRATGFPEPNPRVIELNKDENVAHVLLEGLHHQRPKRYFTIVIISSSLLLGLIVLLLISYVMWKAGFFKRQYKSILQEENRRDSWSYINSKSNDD
T1 sequence (P26010 20-798): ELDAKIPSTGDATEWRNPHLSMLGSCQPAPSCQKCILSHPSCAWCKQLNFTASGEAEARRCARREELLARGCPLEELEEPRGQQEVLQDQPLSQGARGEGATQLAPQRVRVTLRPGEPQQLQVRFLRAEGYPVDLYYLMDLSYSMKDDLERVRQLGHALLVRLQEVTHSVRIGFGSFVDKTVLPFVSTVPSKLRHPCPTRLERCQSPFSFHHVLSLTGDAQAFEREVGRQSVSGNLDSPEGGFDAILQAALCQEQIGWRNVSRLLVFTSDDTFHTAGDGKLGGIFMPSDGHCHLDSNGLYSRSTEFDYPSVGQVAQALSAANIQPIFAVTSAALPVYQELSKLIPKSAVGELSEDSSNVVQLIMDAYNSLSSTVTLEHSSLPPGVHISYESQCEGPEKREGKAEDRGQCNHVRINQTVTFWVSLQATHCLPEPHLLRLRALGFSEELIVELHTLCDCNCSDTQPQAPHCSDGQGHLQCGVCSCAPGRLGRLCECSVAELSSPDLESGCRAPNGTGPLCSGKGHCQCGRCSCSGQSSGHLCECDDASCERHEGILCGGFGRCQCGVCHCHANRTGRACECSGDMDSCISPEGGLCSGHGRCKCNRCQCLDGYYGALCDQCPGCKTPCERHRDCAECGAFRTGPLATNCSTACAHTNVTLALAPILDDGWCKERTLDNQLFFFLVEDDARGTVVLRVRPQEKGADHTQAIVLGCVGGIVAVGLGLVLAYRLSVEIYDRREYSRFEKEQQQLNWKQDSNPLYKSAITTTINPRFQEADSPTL
Kind of assay: Integrin α4β7-MAdCAM cell adhesion assay (RPMI8866 cells). The format is cell-based. The conditions noted are these: RPMI8866 cells adhering to MAdCAM; read-out: RPMI8866 Adhesion α4β7/MAdCAM IC50. How it is done: Integrin α4β7-MAdCAM Cell Adhesion Assay
RPMI8866 cells were resuspended at 10 million cells/ml in PBS containing […] and incubated at 37° C. for 30 min in a 50 ml tube. […] The plate was emptied by inverting and blotting on paper towels and washed manually twice with PBS. 100 μl PBS was then added to each well. […] To calculate the dose response, the fluorescence value of control wells not containing cells was subtracted from each test well.
Turning to `CC(C)C[C@@H]1NC(=O)c2ccc(-c3ccc(N4CCN(C(=O)Cc5ccc(CC(=O)N6CCN(c7ccc(-c8ccc9cc8CNC(=O)[C@@H]8CCCN8[C@H](C(=O)NC(C)(C)C)[C@H](C)NC(=O)[C@H]([C@@H](C)O)NC(=O)[C@H](CC(=O)O)NC(=O)[C@H](CC(C)C)NC9=O)cc7)CC6)cc5)CC4)cc3)c(c2)CNC(=O)[C@@H]2CCCN2[C@H](C(=O)NC(C)(C)C)[C@H](C)NC(=O)[C@H]([C@@H](C)O)NC(=O)[C@H](CC(=O)O)NC1=O` [Compound 516], the IC50 came out at 98 nM.

For `CC(C)C[C@@H]1NC(=O)c2ccc(-c3ccc(N4CCN(C(=O)c5cccc(C(=O)N6CCN(c7ccc(-c8ccc9cc8CNC(=O)[C@@H]8CCCN8[C@H](C(=O)NC(C)(C)C)[C@H](C)NC(=O)[C@H]([C@@H](C)O)NC(=O)[C@H](CC(=O)O)NC(=O)[C@H](CC(C)C)NC9=O)cc7)CC6)n5)CC4)cc3)c(c2)CNC(=O)[C@@H]2CCCN2[C@H](C(=O)NC(C)(C)C)[C@H](C)NC(=O)[C@H]([C@@H](C)O)NC(=O)[C@H](CC(=O)O)NC1=O` [Compound 472], the IC50 is 80 nM.

As to `CC(C)C[C@@H]1NC(=O)c2ccc(-c3ccc(N4CCN(C(=O)c5cccc(-c6ccccc6C(=O)N6CCN(c7ccc(-c8ccc9cc8CNC(=O)[C@@H]8CCCN8[C@H](C(=O)NC(C)(C)C)[C@H](C)NC(=O)[C@H]([C@@H](C)O)NC(=O)[C@H](CC(=O)O)NC(=O)[C@H](CC(C)C)NC9=O)cc7)CC6)c5)CC4)cc3)c(c2)CNC(=O)[C@@H]2CCCN2[C@H](C(=O)NC(C)(C)C)[C@H](C)NC(=O)[C@H]([C@@H](C)O)NC(=O)[C@H](CC(=O)O)NC1=O` [Compound 478], the IC50 came out at 34 nM.

In the case of `CC(C)C[C@@H]1NC(=O)c2ccc(-c3ccc(N4CCN(C(=O)CCCCC(=O)N5CCN(c6ccc(-c7ccc8cc7CNC(=O)[C@@H]7CCCN7[C@H](C(=O)NC(C)(C)C)[C@H](C)NC(=O)[C@H]([C@@H](C)O)NC(=O)[C@H](CC(=O)O)NC(=O)[C@H](CC(C)C)NC8=O)cc6)CC5)CC4)cc3)c(c2)CNC(=O)[C@@H]2CCCN2[C@H](C(=O)NC(C)(C)C)[C@H](C)NC(=O)[C@H]([C@@H](C)O)NC(=O)[C@H](CC(=O)O)NC1=O` [Compound 486], the IC50 was 42 nM.

For `CC(C)C[C@@H]1NC(=O)c2ccc(-c3ccc(N4CCN(C(=O)Cc5ccccc5C(=O)N5CCN(c6ccc(-c7ccc8cc7CNC(=O)[C@@H]7CCCN7[C@H](C(=O)NC(C)(C)C)[C@H](C)NC(=O)[C@H]([C@@H](C)O)NC(=O)[C@H](CC(=O)O)NC(=O)[C@H](CC(C)C)NC8=O)cc6)CC5)CC4)cc3)c(c2)CNC(=O)[C@@H]2CCCN2[C@H](C(=O)NC(C)(C)C)[C@H](C)NC(=O)[C@H]([C@@H](C)O)NC(=O)[C@H](CC(=O)O)NC1=O` [Compound 496], the IC50 came to 41 nM.

Consider `CC(C)C[C@@H]1NC(=O)[C@H]2CCCCN2C(=O)[C@H](Cc2ccc(CNC(=O)CCCCC(=O)NCc3ccc(C[C@@H]4NC(=O)[C@@H]5CCCN5[C@H](C(=O)NC(C)(C)C)[C@H](C)NC(=O)[C@H]([C@@H](C)O)NC(=O)[C@H](CC(=O)O)NC(=O)[C@H](CC(C)C)NC(=O)[C@H]5CCCCN5C4=O)cc3)cc2)NC(=O)[C@@H]2CCCN2[C@H](C(=O)NC(C)(C)C)[C@H](C)NC(=O)[C@H]([C@@H](C)O)NC(=O)[C@H](CC(=O)O)NC1=O` [Compound 523], for which the IC50 amounted to 434 nM.

With `CC(C)C[C@@H]1NC(=O)c2ccc(-c3ccc(N4CCN(C(=O)CCCCCCC(=O)N5CCN(c6ccc(-c7ccc8cc7CNC(=O)[C@@H]7CCCN7[C@H](C(=O)NC(C)(C)C)[C@H](C)NC(=O)[C@H]([C@@H](C)O)NC(=O)[C@H](CC(=O)O)NC(=O)[C@H](CC(C)C)NC8=O)cc6)CC5)CC4)cc3)c(c2)CNC(=O)[C@@H]2CCCN2[C@H](C(=O)NC(C)(C)C)[C@H](C)NC(=O)[C@H]([C@@H](C)O)NC(=O)[C@H](CC(=O)O)NC1=O` [Compound 487], the IC50 came out at 65 nM.

With `CC(C)C[C@@H]1NC(=O)c2ccc(-c3ccc(N4CCN(C(=O)[C@H]5CCCC[C@H]5C(=O)N5CCN(c6ccc(-c7ccc8cc7CNC(=O)[C@@H]7CCCN7[C@H](C(=O)NC(C)(C)C)[C@H](C)NC(=O)[C@H]([C@@H](C)O)NC(=O)[C@H](CC(=O)O)NC(=O)[C@H](CC(C)C)NC8=O)cc6)CC5)CC4)cc3)c(c2)CNC(=O)[C@@H]2CCCN2[C@H](C(=O)NC(C)(C)C)[C@H](C)NC(=O)[C@H]([C@@H](C)O)NC(=O)[C@H](CC(=O)O)NC1=O` [Compound 491], the IC50 turned out to be 23 nM.

Consider `CC(C)C[C@@H]1NC(=O)c2ccc(-c3ccc(N4CCN(C(=O)CN(C)CC(=O)N5CCN(c6ccc(-c7ccc8cc7CNC(=O)[C@@H]7CCCN7[C@H](C(=O)NC(C)(C)C)[C@H](C)NC(=O)[C@H]([C@@H](C)O)NC(=O)[C@H](CC(=O)O)NC(=O)[C@H](CC(C)C)NC8=O)cc6)CC5)CC4)cc3)c(c2)CNC(=O)[C@@H]2CCCN2[C@H](C(=O)NC(C)(C)C)[C@H](C)NC(=O)[C@H]([C@@H](C)O)NC(=O)[C@H](CC(=O)O)NC1=O` [Compound 501], for which the IC50 turned out to be 38 nM.

`CC(C)C[C@@H]1NC(=O)c2ccc(-c3ccc(N4CCN(C(=O)c5ccc(C(=O)N6CCN(c7ccc(-c8ccc9cc8CNC(=O)[C@@H]8CCCN8[C@H](C(=O)NC(C)(C)C)[C@H](C)NC(=O)[C@H]([C@@H](C)O)NC(=O)[C@H](CC(=O)O)NC(=O)[C@H](CC(C)C)NC9=O)cc7)CC6)c6ccccc56)CC4)cc3)c(c2)CNC(=O)[C@@H]2CCCN2[C@H](C(=O)NC(C)(C)C)[C@H](C)NC(=O)[C@H]([C@@H](C)O)NC(=O)[C@H](CC(=O)O)NC1=O` [Compound 463]: the IC50 is 21 nM.

In the case of `CC(C)C[C@@H]1NC(=O)c2ccc(-c3ccc(N4CCN(C(=O)COCCOCCOCC(=O)N5CCN(c6ccc(-c7ccc8cc7CNC(=O)[C@@H]7CCCN7[C@H](C(=O)NC(C)(C)C)[C@H](C)NC(=O)[C@H]([C@@H](C)O)NC(=O)[C@H](CC(=O)O)NC(=O)[C@H](CC(C)C)NC8=O)cc6)CC5)CC4)cc3)c(c2)CNC(=O)[C@@H]2CCCN2[C@H](C(=O)NC(C)(C)C)[C@H](C)NC(=O)[C@H]([C@@H](C)O)NC(=O)[C@H](CC(=O)O)NC1=O` [Compound 508], the IC50 came to 46 nM.

`CC(C)C[C@@H]1NC(=O)c2ccc(-c3ccc(N4CCN(C(=O)CCCCCCCCC(=O)N5CCN(c6ccc(-c7ccc8cc7CNC(=O)[C@@H]7CCCN7[C@H](C(=O)NC(C)(C)C)[C@H](C)NC(=O)[C@H]([C@@H](C)O)NC(=O)[C@H](CC(=O)O)NC(=O)[C@H](CC(C)C)NC8=O)cc6)CC5)CC4)cc3)c(c2)CNC(=O)[C@@H]2CCCN2[C@H](C(=O)NC(C)(C)C)[C@H](C)NC(=O)[C@H]([C@@H](C)O)NC(=O)[C@H](CC(=O)O)NC1=O` [Compound 489]: the IC50 worked out at 40 nM.

As for `CC(C)C[C@@H]1NC(=O)c2ccc(-c3ccc(N4CCN(C(=O)c5cccc(C(=O)N6CCN(c7ccc(-c8ccc9cc8CNC(=O)[C@@H]8CCCN8[C@H](C(=O)NC(C)(C)C)[C@H](C)NC(=O)[C@H]([C@@H](C)O)NC(=O)[C@H](CC(=O)O)NC(=O)[C@H](CC(C)C)NC9=O)cc7)CC6)c5)CC4)cc3)c(c2)CNC(=O)[C@@H]2CCCN2[C@H](C(=O)NC(C)(C)C)[C@H](C)NC(=O)[C@H]([C@@H](C)O)NC(=O)[C@H](CC(=O)O)NC1=O` [Compound 497], the IC50 is 25 nM.
